Values quoted from earlier work as cited in US12064484B2, “Compositions for introducing RNA into cells” (ETHRIS GMBH, priority 2013, dated 2024).

System: cell culture
Settings: cholesterol-polyamine carbamates

Compound	reporter gene expression (beta galactosidase plasmid DNA)
CC(C)CCCC(C)C1CCC2C3CC=C4CC(OC(=O)NCCNCCCNCCN)CCC4(C)C3CCC12C (centres unmarked) [ethyl/propyl/ethyl]	three- to tenfold less efficient
CC(C)CCCC(C)C1CCC2C3CC=C4CC(OC(=O)NCCCNCCCCNCCCN)CCC4(C)C3CCC12C (centres unmarked) [propyl/butyl/propyl]	by far the highest reporter gene expression
